Assay results reported in patent US20220008419A1, “PHARMACEUTICAL COMPOSITION FOR TREATING DIFFUSE-TYPE GASTRIC CANCER” (KANAZAWA MEDICAL UNIVERSITY, priority 2018, published 2022).

Columns and labels:
ErbB4 (HER4) = ErbB4 (HER4) (Homo sapiens, UniProt Q15303); conditions: reported in literature; cited from earlier work
EGFR (ErbB1) = EGFR (ErbB1) (Homo sapiens, UniProt P00533); conditions: reported in literature; cited from earlier work
ErbB2 (HER2) = ErbB2 (HER2) (Homo sapiens, UniProt P04626); conditions: reported in literature; cited from earlier work
[1] = test system: Diffuse gastric cancer cells (NUGC4 cells); test: In vivo test: survival of mice intraperitoneally transplanted with NUGC4 cells; parameters: species or system Balb/c nu/nu mice; conditions: for mice alive 11 weeks after the gastric cancer cell transplantation / mice alive seven weeks after the gastric cancer cell transplantation: eight mice per therapy, treatment from day 21, AZ5104/osimertinib 10 mg/kg once a day oral, savolitinib 2.5 mg/kg once a day oral, antibody 40 mg/kg twice a week intraperitoneal; for t-test for numbers of mice alive 11 weeks after transplantation compared with the control group: p<0.05
Method: The anti-VEGF receptor 2 antibody used was anti-mouse VEGF receptor 2 antibody DC101 (GeneTex).
Diffuse gastric cancer cells (NUGC4 cells) were transplanted to Balb/c nu/nu mice (6 weeks old) by intraperitoneal administration of 2×10^6 of the cells in 200 μL of phosphate buffered saline (PBS) per mouse. On day 21 after the transplantation, ascites accumulation was confirmed, and treatment was started. The treatment was performed with the following eight kinds of therapies, and eight mice were used for each therapy.
For the control group (vehicle control), only a solution not dissolving any drug was administered once a week. The administration was continued for 4 weeks, and then for another 4 weeks.

mutant EGFR = conditions: reported in literature; cited from earlier work
[2] = test system: non-small cell lung cancer with EGFR EX20Ins mutation; conditions: Floc'h et al.; cited from earlier work
MKN45 = test: In vitro cell growth inhibition (CCK-8), cMet gene-amplified gastric cancer cell line MKN45; format: cell-based, human; conditions: 72 hours
Method: (§1) Five types of cell lines (NUGC4, GCIY, MKN7, GCR1 and MKN45) were subcultured in the RPMI 1640 culture medium containing 10% concentration of fetal bovine serum, 100 units/mL concentration of penicillin, and 100 units/mL concentration of antibiotic streptomycin, and used in the following experiments. The cells were periodically examined for the presence of mycoplasma infection by using MycoAlert Mycoplasma Detection Kit (Lonza). Cell growth was measured by using Cell Counting Kit-8 (CCK-8) (Dojin Kagaku Kenkyusho, Kumamoto, Japan) (Ishiyama M., et al., […], 44; 1299:1997). The cells were inoculated at a density of 5×10^4 cells/mL in a volume of 100 μL per well, and incubated at 37° C. for 24 hours in an incubator. Then, any one of three types of cell growth factors, amphiregulin (AP, 100 ng/mL, R&D Systems, Minneapolis, Minn.), heparin-binding EGF-like growth factor (HB-EGF), and hepatocyte growth factor (HGF, 50 ng/mL, R&D Systems), and any one of two types of the EGFR inhibitors, AZ5104 (0.001 to 10 μM) and AST1306 (0.001 to 10 μM)), were added to each well, and the cells were further incubated at 37° C. for 72 hours in an incubator. In addition, to the control wells, any one of the three types of cell growth factors was added, but not the EGFR inhibitor. […] Absorbance was measured at a wavelength of 450 nm by using a microplate reader (BIO-RAD Laboratories, Inc.). […]

[3] = test system: normal human gastric fibroblasts; test: In vitro growth inhibition test for fibroblasts (cell count); format: cell-based; conditions: HB-EGF 10 ng/mL, EGF receptor inhibitor 1 μM, 96 hours
GCR-1 = test: In vitro cell growth inhibition (CCK-8), non-diffuse gastric cancer cell line GCR-1; format: cell-based, human; conditions: HGF 50 ng/mL, 72 hours
Method: as §1

NUGC4 = test: In vitro cell growth inhibition (CCK-8), diffuse gastric cancer cell line NUGC4; format: cell-based, human; conditions: inhibitor 0.001 to 10 μM, 72 hours; for HGF-induced cell growth of NUGC4: HGF 50 ng/mL; for amphiregulin-induced cell growth of NUGC4: amphiregulin 100 ng/mL
Method: (§2) Five types of cell lines (NUGC4, GCIY, MKN7, GCR1 and MKN45) were subcultured in the RPMI 1640 culture medium containing 10% concentration of fetal bovine serum, 100 units/mL concentration of penicillin, and 100 units/mL concentration of antibiotic streptomycin, and used in the following experiments. The cells were periodically examined for the presence of mycoplasma infection by using MycoAlert Mycoplasma Detection Kit (Lonza). Cell growth was measured by using Cell Counting Kit-8 (CCK-8) (Dojin Kagaku Kenkyusho, Kumamoto, Japan) (Ishiyama M., et al., […], 44; 1299:1997). The cells were inoculated at a density of 5×10^4 cells/mL in a volume of 100 μL per well, and incubated at 37° C. for 24 hours in an incubator. Then, any one of three types of cell growth factors, amphiregulin (AP, 100 ng/mL, R&D Systems, Minneapolis, Minn.), heparin-binding EGF-like growth factor (HB-EGF), and hepatocyte growth factor (HGF, 50 ng/mL, R&D Systems), and any one of two types of the EGFR inhibitors, AZ5104 (0.001 to 10 μM) and AST1306 (0.001 to 10 μM)), were added to each well, and the cells were further incubated at 37° C. for 72 hours in an incubator. In addition, to the control wells, any one of the three types of cell growth factors was added, but not the EGFR inhibitor. Further, 10 μL of a WST-8 solution was added to each well, and the cells were cultured at 37° C. for 4 hours. Absorbance was measured at a wavelength of 450 nm by using a microplate reader (BIO-RAD Laboratories, Inc.). All the experiments were performed in triplicate, that is, the same experiment was repeated three times.

GCIY = test: In vitro cell growth inhibition (CCK-8), diffuse gastric cancer cell line GCIY; format: cell-based, human; conditions: 72 hours; for HB-EGF-induced cell growth of GCIY / HGF-induced cell growth of GCIY / amphiregulin-induced cell growth of GCIY: inhibitor 0.001 to 10 μM; for HGF-induced cell growth of GCIY: HGF 50 ng/mL; for amphiregulin-induced cell growth of GCIY: amphiregulin 100 ng/mL; for baseline cell growth of GCIY: no growth factor added
Method: as §2

MKN7 = test: In vitro cell growth inhibition (CCK-8), non-diffuse gastric cancer cell line MKN7; format: cell-based, human; conditions: HGF 50 ng/mL, 72 hours
Method: as §1

[4] = test system: FVB-2/Nneu transgenic breast cancer; conditions: Hua Xie et al.; cited from earlier work
[5] = test system: ErbB2-overexpressing adenocarcinoma xenograft; conditions: Hua Xie et al.; cited from earlier work
[6] = test system: ErbB2-overexpressing cells; conditions: Hua Xie et al.; cited from earlier work
[7] = test system: EGFR-overexpressing tumor xenograft; conditions: Hua Xie et al.; cited from earlier work
cancer patients = conditions: among 55 evaluable cancer patients, phase I; cited from earlier work

ErbB4 (HER4), sequence (Q15303 26-1308): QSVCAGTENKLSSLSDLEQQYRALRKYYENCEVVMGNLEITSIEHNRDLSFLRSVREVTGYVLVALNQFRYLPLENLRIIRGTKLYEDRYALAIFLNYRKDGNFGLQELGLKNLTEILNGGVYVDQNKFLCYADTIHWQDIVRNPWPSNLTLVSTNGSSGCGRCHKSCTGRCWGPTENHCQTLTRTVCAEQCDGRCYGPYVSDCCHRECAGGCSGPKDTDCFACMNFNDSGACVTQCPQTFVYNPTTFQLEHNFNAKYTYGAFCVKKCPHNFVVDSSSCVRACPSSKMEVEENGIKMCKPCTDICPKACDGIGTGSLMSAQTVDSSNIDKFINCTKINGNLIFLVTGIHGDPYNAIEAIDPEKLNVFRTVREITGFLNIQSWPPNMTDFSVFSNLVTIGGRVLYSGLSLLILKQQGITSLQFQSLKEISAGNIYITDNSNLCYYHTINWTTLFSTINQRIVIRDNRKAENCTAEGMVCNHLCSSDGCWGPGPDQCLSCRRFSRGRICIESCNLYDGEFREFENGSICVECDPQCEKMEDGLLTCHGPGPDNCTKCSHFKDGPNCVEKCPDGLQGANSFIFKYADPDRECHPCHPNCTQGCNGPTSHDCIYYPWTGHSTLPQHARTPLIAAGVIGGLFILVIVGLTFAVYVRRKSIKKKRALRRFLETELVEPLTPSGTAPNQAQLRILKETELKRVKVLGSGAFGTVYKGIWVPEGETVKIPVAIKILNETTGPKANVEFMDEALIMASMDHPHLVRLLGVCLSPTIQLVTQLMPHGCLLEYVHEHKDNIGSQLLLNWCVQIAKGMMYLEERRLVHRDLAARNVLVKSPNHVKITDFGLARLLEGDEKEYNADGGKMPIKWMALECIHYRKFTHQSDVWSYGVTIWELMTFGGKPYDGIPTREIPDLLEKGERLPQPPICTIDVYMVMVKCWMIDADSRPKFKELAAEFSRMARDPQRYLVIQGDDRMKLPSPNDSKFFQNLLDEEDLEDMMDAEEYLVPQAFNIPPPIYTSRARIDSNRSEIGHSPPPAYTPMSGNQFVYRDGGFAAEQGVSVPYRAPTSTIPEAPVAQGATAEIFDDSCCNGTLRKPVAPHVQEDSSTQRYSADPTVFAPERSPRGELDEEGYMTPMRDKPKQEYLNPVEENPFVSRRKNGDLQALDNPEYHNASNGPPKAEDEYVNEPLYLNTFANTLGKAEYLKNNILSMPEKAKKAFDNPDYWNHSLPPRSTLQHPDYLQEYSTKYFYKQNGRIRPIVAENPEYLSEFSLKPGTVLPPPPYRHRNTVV
EGFR (ErbB1), sequence (P00533 25-1210): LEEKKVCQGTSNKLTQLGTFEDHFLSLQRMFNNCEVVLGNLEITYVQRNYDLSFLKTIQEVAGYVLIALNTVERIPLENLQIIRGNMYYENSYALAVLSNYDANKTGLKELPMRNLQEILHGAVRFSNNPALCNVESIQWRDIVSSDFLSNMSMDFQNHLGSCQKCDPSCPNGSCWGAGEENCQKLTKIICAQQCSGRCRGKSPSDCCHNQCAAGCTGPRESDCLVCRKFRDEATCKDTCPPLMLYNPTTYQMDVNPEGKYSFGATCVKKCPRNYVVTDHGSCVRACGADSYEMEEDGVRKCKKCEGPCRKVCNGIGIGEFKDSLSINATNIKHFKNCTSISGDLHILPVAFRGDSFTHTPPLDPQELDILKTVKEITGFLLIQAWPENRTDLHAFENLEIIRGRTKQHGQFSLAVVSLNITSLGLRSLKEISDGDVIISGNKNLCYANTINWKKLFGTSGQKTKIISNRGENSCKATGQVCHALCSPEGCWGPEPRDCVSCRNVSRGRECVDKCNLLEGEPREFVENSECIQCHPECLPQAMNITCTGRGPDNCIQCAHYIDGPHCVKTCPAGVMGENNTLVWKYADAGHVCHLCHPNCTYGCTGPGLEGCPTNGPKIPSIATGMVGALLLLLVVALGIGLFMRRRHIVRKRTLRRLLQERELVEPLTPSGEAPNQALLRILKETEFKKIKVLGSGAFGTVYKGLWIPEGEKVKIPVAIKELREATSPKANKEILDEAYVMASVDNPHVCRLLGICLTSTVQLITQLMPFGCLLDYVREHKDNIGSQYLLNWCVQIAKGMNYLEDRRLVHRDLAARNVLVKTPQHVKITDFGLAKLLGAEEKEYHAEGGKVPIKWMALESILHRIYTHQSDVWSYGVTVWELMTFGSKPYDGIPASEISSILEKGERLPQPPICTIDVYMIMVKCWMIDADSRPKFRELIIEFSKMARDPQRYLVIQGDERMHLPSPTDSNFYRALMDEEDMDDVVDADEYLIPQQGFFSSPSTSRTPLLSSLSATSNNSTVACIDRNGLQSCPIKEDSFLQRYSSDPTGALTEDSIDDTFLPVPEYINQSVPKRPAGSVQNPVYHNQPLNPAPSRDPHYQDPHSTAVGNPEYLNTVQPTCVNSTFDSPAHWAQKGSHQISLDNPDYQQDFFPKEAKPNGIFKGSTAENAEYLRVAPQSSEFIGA
ErbB2 (HER2), sequence (P04626 23-1255): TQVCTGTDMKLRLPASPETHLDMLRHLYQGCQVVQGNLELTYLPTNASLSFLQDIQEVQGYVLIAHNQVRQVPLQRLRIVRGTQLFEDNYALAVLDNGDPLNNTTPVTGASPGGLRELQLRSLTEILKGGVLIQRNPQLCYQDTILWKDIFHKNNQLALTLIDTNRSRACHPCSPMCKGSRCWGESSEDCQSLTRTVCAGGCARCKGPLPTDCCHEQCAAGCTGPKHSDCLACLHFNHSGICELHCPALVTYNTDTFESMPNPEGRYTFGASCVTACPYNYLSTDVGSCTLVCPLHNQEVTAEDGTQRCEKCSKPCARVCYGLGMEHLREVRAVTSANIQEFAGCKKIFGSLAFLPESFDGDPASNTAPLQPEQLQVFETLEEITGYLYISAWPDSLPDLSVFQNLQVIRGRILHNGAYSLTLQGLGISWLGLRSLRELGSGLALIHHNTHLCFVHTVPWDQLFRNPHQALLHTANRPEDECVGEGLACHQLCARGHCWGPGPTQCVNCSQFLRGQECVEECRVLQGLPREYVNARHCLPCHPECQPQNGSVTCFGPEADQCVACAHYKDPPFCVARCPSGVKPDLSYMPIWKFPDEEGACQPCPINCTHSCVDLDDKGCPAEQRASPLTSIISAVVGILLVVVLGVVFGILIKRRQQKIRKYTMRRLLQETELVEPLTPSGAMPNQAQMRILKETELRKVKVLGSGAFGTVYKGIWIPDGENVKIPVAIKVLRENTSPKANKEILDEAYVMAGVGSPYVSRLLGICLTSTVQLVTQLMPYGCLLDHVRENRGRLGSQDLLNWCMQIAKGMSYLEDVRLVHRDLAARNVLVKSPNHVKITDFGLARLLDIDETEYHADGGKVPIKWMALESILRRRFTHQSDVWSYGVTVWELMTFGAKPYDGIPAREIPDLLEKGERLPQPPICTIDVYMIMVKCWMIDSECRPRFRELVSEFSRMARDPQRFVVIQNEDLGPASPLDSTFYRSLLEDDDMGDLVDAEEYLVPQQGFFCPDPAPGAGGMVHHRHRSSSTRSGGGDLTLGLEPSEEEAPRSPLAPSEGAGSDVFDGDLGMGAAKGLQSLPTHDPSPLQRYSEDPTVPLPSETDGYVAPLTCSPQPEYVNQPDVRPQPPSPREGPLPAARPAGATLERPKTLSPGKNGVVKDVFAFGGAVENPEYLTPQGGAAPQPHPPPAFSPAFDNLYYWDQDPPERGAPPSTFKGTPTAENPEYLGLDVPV

Cc1c(NC(=O)OC[C@@H]2COCCN2)cn2ncnc(Nc3ccc4c(cnn4Cc4cccc(F)c4)c3)c12 [AC480, (S)-morpholin-3-ylmethyl 4-(1-(3-fluorobenzyl)-1H-indazol-5-ylamino)-5-methylpyrrolo[1,2-f][1,2,4]triazine-6-carbamate]
inhibition of ErbB4 (HER4) (ErbB4 (HER4)): inhibit
inhibition of EGFR (ErbB1) (EGFR (ErbB1)): inhibit
inhibition of ErbB2 (HER2) (ErbB2 (HER2)): inhibit

C[C@@H](c1ccc2nccn2c1)n1nnc2ncc(-c3cnn(C)c3)nc21 [savolitinib]
mice alive 11 weeks after the gastric cancer cell transplantation [1]: all died
mice alive seven weeks after the gastric cancer cell transplantation [1]: 2 mice
t-test for numbers of mice alive 11 weeks after transplantation compared with the control group [1]: no significant difference

COc1cc2ncnc(Nc3ccc(F)c(Cl)c3)c2cc1NC(=O)/C=C/CN1CCCCC1 [dacomitinib]
inhibition of ErbB4 (HER4) (ErbB4 (HER4)): inhibit
inhibition of EGFR (ErbB1) (EGFR (ErbB1)): inhibit
inhibition of ErbB2 (HER2) (ErbB2 (HER2)): inhibit

CCN1CCN(Cc2ccc(-c3cc4c(N[C@H](C)c5ccccc5)ncnc4[nH]3)cc2)CC1 [AEE788, (R)-6-(4-((4-ethylpiperazin-1-yl)methyl)phenyl)-N-(1-phenylethyl)-7H-pyrrolo[2,3-d]pyrimidin-4-amine]
inhibition of ErbB4 (HER4) (ErbB4 (HER4)): inhibit
inhibition of EGFR (ErbB1) (EGFR (ErbB1)): inhibit
inhibition of ErbB2 (HER2) (ErbB2 (HER2)): inhibit

CS(=O)(=O)CCNCc1ccc(-c2ccc3ncnc(Nc4ccc(OCc5cccc(F)c5)c(Cl)c4)c3c2)o1 [lapatinib]
inhibition of ErbB4 (HER4) (ErbB4 (HER4)): inhibit
inhibition of ErbB2 (HER2) (ErbB2 (HER2)): inhibit

C=CC(=O)Nc1cc(Nc2nccc(-c3cn(C)c4ccccc34)n2)c(OC)cc1N(C)CCN(C)C [osimertinib, 2-propenamide, N-[2-[[2-(dimethylamino)ethyl]methylamino]-4-methoxy-5-[[4-(1-methyl-1H-indol-3-yl)-2-pyrimidinyl]amino]phenyl]-]
inhibitory activity against mutant EGFR (mutant EGFR): inhibitory activity
inhibition of ErbB4 (HER4) (ErbB4 (HER4)): inhibitory activities
inhibition of ErbB2 (HER2) (ErbB2 (HER2)): inhibitory activities
mice alive 11 weeks after the gastric cancer cell transplantation [1]: 2 mice
t-test for numbers of mice alive 11 weeks after transplantation compared with the control group [1]: significant differences
tumor growth in mice transplanted with non-small cell lung cancer with EGFR EX20Ins mutation [2]: inhibit

CC(C)(O)CC(=O)NCCn1ccc2ncnc(Nc3ccc(Oc4cccc(C(F)(F)F)c4)c(Cl)c3)c21 [TAK-285, N-(2-(4-(3-chloro-4-(3-(trifluoromethyl)phenoxy)phenylamino)-5H-pyrrolo[3,2-d]pyrimidin-5-yl)ethyl)-3-hydroxy-3-methylbutanamide]
inhibition of ErbB4 (HER4) (ErbB4 (HER4)): inhibit
inhibition of ErbB2 (HER2) (ErbB2 (HER2)): inhibit

C=CC(=O)N1CCC(Oc2cc3c(Nc4ccc(Cl)c(Cl)c4F)ncnc3cc2OC)CC1 [poziotinib, 1-(4-(4-(3,4-dichloro-2-fluorophenylamino)-7-methoxyquinazolin-6-yloxy)piperidin-1-yl)prop-2-en-1-one]
inhibition of ErbB4 (HER4) (ErbB4 (HER4)): inhibit
inhibition of EGFR (ErbB1) (EGFR (ErbB1)): inhibit
inhibition of ErbB2 (HER2) (ErbB2 (HER2)): inhibit

C=CC(=O)Nc1cc(Nc2nccc(-c3c[nH]c4ccccc34)n2)c(OC)cc1N(C)CCN(C)C [AZ5104, N-(5-(4-(1H-indol-3-yl)pyrimidin-2-ylamino)-2-((2-(dimethylamino)ethyl)(methyl)amino)-4-methoxyphenyl)acrylamide]
concentration at which cell growth of MKN45 was inhibited (MKN45): ≥ 1 µM
HB-EGF-induced cell growth of normal human gastric fibroblasts [3]: inhibited
inhibitory activity against mutant EGFR (mutant EGFR): inhibitory activity
inhibition of ErbB4 (HER4) (ErbB4 (HER4)): inhibitory activities
inhibition of EGFR (ErbB1) (EGFR (ErbB1)): inhibitory activities
inhibition of ErbB2 (HER2) (ErbB2 (HER2)): inhibitory activities
concentration at which HGF-induced cell growth of GCR-1 was inhibited (GCR-1): ≥ 0.3 µM
HB-EGF-induced cell growth of NUGC4 (NUGC4): inhibited
HGF-induced cell growth of NUGC4 (NUGC4): inhibited
amphiregulin-induced cell growth of NUGC4 (NUGC4): inhibited
mice alive 11 weeks after the gastric cancer cell transplantation [1]: all died
mice alive seven weeks after the gastric cancer cell transplantation [1]: one
t-test for numbers of mice alive 11 weeks after transplantation compared with the control group [1]: significant differences
tumor growth in mice transplanted with non-small cell lung cancer with EGFR EX20Ins mutation [2]: inhibit
HB-EGF-induced cell growth of GCIY (GCIY): inhibited
HGF-induced cell growth of GCIY (GCIY): inhibited
amphiregulin-induced cell growth of GCIY (GCIY): inhibited
baseline cell growth of GCIY (GCIY): inhibited
concentration at which HGF-induced cell growth of MKN7 was inhibited (MKN7): ≥ 0.3 µM

C=CC(=O)Nc1ccc2ncnc(Nc3ccc(OCc4cccc(F)c4)c(Cl)c3)c2c1.Cc1ccc(S(=O)(=O)O)cc1 [AST1306, 2-propenamide, N-[4-[[3-chloro-4-[(3-fluorophenyl)methoxy]phenyl]amino]-6-quinazolinyl]-, 4-methylbenzenesulfonate (1:1)]
concentration at which cell growth of MKN45 was inhibited (MKN45): ≥ 1 µM
tumor growth in FVB-2/Nneu transgenic breast cancer mice [4]: potently inhibited
HB-EGF-induced cell growth of normal human gastric fibroblasts [3]: inhibited
inhibition of ErbB4 (HER4) (ErbB4 (HER4)): irreversible inhibitor
inhibition of EGFR (ErbB1) (EGFR (ErbB1)): irreversible inhibitor
inhibition of ErbB2 (HER2) (ErbB2 (HER2)): irreversible inhibitor
concentration at which HGF-induced cell growth of GCR-1 was inhibited (GCR-1): ≥ 0.3 µM
HB-EGF-induced cell growth of NUGC4 (NUGC4): inhibited
HGF-induced cell growth of NUGC4 (NUGC4): inhibited
amphiregulin-induced cell growth of NUGC4 (NUGC4): inhibited
tumor growth in ErbB2-overexpressing adenocarcinoma xenografted mice [5]: potently inhibited
growth inhibitory effect in ErbB2-overexpressing cells [6]: more potent
tumor growth in EGFR-overexpressing tumor xenografted mice [7]: weakly inhibited
HB-EGF-induced cell growth of GCIY (GCIY): inhibited
HGF-induced cell growth of GCIY (GCIY): inhibited
amphiregulin-induced cell growth of GCIY (GCIY): inhibited
baseline cell growth of GCIY (GCIY): inhibited
concentration at which HGF-induced cell growth of MKN7 was inhibited (MKN7): ≥ 0.3 µM
partial remission (cancer patients): 7 patients
stability (stability over 6 months or longer) (cancer patients): 7 patients
